Data on 2 molecules can be found in paper PMC3046873 (ACS medicinal chemistry letters, 2011).

pEC50: −log10 of the molar value. Where only a bound is given, the exact number is not on record here.

The subject of data set [1] is Plasmodium falciparum. Conditions: cited from earlier work.
Data set [2] has as its system Plasmodium falciparum. Nature of the data set: Activity against the malaria parasite Plasmodium falciparum. Conditions: fold versus 1.
For data set [3] the following is noted: background statement, no reference given, cited from earlier work.

On to `O=CN(O)CCC(c1ccc(Cl)c(Cl)c1)P(=O)(O)O` (stereo not shown) [Compound 8], for which, in data set [1], the pEC50 (as a rule, the negative decadic logarithm of the EC50, by convention in mol/L) was 7.05. For the same molecule, in data set [2], the “increased activity against Plasmodium falciparum relative to 1” value is recorded as more than 10 ×.

Regarding `O=CN(O)CCCP(=O)(O)O` [Compound 1, Fosmidomycin], the oral availability entry in data set [3] is on record as “poor”. Moreover, in data set [3] (plasma), the half-life in plasma is recorded as ~ 1 h.
